“And” between values parts separate entries of the source, which are not always exact repeats. Equal entries are not always repeated. Where two headings read alike, the source gives them in different places.
Columns and labels:
[1] = Preliminary pharmacokinetic test, intravenous injection; format: in vivo, SD rats; conditions: 5 mg/kg, rats, intravenous injection 5 mg/kg, tested as monomesylate; for Vd: read-out: Vss
Protocol: (§1) 1. 14 healthy SD rats, male, weigh 200-220 g, were taken to be randomly divided into 4 groups, 3-4 in each group, and were administered the tested compound P-17 and compound CYH33 (compared with compound P-17, missing a methyl group on 7-position) via intragastric administration (10 mg/kg) and intravenous injection (5 mg/kg) respectively, the specific arrangements are shown in the following table 3:
(§2) The rats were fasted for 12 h before experiment, water was taken freely. The rats were fed 2 h after dosing.
Dosing via intravenous: 5 min, 0.25 h, 0.5 h, 1.0 h, 2.0 h, 4.0 h, 6.0 h, 8.0 h, and 24 h after dosing.
(§3) At the above setting time points, 0.3 ml of venous blood was taken from the retroorbital venous plexus of the rat, and placed in a heparinized test tube, centrifuged at 11,000 rpm for 5 min, then the plasma was separated, and frozen in a refrigerator at −20° C.
(§4) LC/MS/MS method was used to determine the concentration of the compounds in the plasma of rats.
(§5) The non-compartment model of Phoenix 1.3 software (Pharsight Corporation, USA) was used to calculate the pharmacokinetic parameters after dosing.

[2] = molecular target: PI3Kβ (Homo sapiens, UniProt P42338); assay: PI3K kinase activity, β isoform;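 note: kinase reaction containing 1% DMSO, read as an emission ratio, with inhibition scaled between the 0% and 100% control ratios. IC50 values come from a ten-point fourfold dilution series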
Protocol: (§6) Concentration setting for preliminary screening: the compounds to be tested were dissolved in DMSO (dimethyl sulfoxide) to 100 μM or 10 μM as storage solutions; for each one, 2 μL was taken to be added to 48 μL of 1× Reaction Buffer to obtain a 4 μM or 400 nM compound solution containing 4% DMSO. After well mixing, the mixture was diluted with 4% DMSO in 1× Reaction Buffer to obtain a 4 μM or 400 nM compound solution. 5 μL of each diluted solution was taken to be added to a 384-well plate, so that the final concentration of the compound in the final 20 μL of the kinase reaction system was 1 μM and 100 nM or 100 nM and 20 nM, respectively, and containing 1% DMSO.
(§7) The compounds to be tested were dissolved in DMSO to 1 mM or 10 mM as working solutions, 1 μL of each working solution was taken to be added to 24 μl of 1× Kinase Buffer A to obtain a 40 μM or 400 μM compound solution containing 4% DMSO. The compound solution was diluted by 4× gradient in sequence, 10 dilution concentrations.
(§8) Calculation of the Inhibition Rate • The inhibitory rate was calculated by the following formula: Inhibitory rate=(ERsample−ER0%)/(ER100%−ER0%)×100%

[3] = molecular target: PI3Kγ (Homo sapiens, UniProt P48736); assay: PI3K kinase activity, γ isoform; format: biochemical;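 note: kinase reaction run in 384-well plates, with inhibition normalised between the 0% and 100% reference reactions. IC50 derived from a ten-point, fourfold serial dilution series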
Protocol: as §6, §7, §8

[4] = molecular target: PI3Kδ (Homo sapiens, UniProt O00329); assay: PI3K kinase activity, δ isoform
Protocol: as §6, §7, §8

[5] = Preliminary pharmacokinetic test, intragastric administration; format: in vivo, SD rats; conditions: rats; for half-life: read-out: T½ (converted)
Protocol: as §1, §2
Dosing via intragastric administration: 0.25 h, 0.5 h, 1.0 h, 2.0 h, 3.0 h, 4.0 h, 6.0 h, 8.0 h, and 24 h after dosing.
as §3, §4, §5

[6] = molecular target: PI3Kα (Homo sapiens, UniProt P42336); assay: PI3K kinase activity, α isoform
Protocol: as §6, §7, §8

[7] = male, SD, rat, plasma, iv, Mean
[8] = male, SD, rat, plasma, iv, individual animal

Chain of PI3Kα (P42336 whole entry, canonical isoform): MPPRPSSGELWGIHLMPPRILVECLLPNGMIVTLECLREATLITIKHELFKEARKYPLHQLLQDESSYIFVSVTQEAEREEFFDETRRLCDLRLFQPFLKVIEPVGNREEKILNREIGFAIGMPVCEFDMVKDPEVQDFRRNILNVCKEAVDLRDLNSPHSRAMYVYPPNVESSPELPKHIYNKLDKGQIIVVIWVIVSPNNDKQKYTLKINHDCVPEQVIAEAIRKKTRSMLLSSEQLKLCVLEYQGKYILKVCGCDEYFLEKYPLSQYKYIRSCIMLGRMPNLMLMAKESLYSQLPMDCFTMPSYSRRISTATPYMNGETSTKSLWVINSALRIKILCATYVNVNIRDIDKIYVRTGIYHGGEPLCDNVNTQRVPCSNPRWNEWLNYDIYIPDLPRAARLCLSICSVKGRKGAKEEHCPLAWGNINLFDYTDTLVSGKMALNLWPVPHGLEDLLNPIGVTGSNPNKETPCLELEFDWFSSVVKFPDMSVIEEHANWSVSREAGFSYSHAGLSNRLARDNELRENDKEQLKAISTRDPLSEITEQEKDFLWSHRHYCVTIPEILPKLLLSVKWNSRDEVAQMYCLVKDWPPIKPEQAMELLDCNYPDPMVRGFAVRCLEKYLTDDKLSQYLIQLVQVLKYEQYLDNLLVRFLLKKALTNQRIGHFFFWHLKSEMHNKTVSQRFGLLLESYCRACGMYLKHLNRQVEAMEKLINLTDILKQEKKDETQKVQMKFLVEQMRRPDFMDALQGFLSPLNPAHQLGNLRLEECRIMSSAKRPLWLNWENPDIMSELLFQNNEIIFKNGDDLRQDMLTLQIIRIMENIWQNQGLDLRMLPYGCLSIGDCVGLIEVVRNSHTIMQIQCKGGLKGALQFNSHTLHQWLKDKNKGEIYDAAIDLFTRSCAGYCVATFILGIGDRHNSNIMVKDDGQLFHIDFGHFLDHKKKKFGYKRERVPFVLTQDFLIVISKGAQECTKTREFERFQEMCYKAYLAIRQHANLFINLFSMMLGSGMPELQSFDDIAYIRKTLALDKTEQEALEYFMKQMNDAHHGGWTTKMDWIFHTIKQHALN
Chain of PI3Kα (P27986 whole entry partner, canonical isoform): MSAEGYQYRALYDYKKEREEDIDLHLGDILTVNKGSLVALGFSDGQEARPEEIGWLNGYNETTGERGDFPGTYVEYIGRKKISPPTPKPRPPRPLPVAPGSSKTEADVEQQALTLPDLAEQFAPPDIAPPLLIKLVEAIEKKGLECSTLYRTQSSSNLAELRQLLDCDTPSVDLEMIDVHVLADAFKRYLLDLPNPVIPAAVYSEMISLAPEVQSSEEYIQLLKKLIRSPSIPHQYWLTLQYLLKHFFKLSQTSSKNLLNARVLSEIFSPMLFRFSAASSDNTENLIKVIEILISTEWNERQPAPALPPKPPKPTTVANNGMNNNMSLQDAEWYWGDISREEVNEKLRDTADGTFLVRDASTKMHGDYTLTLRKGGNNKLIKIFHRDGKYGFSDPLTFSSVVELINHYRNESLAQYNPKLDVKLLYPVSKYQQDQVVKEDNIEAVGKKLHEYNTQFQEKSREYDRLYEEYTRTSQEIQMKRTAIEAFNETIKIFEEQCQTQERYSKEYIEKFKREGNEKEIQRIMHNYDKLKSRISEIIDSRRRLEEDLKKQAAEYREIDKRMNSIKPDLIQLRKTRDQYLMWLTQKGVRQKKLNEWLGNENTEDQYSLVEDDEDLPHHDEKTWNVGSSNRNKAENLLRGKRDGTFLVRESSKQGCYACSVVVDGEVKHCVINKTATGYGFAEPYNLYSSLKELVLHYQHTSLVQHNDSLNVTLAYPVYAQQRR
Chain of PI3Kδ (O00329 whole entry, canonical isoform): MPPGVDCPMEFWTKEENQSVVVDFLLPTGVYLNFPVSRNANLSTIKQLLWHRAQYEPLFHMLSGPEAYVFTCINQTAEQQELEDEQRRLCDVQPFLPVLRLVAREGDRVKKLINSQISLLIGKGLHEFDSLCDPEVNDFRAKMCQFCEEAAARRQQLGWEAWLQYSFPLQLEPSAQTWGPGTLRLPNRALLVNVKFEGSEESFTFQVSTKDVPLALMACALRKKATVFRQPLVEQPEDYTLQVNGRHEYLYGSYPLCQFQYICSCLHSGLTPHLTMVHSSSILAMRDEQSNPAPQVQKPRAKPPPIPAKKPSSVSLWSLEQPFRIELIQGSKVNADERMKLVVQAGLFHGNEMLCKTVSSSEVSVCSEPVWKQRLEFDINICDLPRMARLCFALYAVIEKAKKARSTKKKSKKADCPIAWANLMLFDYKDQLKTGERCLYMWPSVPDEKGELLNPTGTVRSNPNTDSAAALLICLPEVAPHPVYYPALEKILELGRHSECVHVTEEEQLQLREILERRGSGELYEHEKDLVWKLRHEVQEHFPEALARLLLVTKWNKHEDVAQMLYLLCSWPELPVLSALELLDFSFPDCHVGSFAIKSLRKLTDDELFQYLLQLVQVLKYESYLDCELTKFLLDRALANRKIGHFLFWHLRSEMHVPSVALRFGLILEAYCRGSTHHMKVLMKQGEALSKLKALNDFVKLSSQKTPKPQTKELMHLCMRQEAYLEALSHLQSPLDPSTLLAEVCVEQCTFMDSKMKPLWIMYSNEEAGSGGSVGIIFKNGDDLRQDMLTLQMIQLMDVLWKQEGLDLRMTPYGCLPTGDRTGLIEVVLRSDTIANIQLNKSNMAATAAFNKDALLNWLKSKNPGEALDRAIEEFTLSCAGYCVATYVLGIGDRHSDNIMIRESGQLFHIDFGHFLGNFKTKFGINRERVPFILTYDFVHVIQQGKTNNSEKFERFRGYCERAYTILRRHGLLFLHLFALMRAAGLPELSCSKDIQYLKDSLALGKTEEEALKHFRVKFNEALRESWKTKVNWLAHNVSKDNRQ
Chain of PI3Kδ (P27986 whole entry partner, canonical isoform): as the sequence (P27986 whole entry partner, canonical isoform) above
Chain of PI3Kγ (P48736 whole entry, canonical isoform): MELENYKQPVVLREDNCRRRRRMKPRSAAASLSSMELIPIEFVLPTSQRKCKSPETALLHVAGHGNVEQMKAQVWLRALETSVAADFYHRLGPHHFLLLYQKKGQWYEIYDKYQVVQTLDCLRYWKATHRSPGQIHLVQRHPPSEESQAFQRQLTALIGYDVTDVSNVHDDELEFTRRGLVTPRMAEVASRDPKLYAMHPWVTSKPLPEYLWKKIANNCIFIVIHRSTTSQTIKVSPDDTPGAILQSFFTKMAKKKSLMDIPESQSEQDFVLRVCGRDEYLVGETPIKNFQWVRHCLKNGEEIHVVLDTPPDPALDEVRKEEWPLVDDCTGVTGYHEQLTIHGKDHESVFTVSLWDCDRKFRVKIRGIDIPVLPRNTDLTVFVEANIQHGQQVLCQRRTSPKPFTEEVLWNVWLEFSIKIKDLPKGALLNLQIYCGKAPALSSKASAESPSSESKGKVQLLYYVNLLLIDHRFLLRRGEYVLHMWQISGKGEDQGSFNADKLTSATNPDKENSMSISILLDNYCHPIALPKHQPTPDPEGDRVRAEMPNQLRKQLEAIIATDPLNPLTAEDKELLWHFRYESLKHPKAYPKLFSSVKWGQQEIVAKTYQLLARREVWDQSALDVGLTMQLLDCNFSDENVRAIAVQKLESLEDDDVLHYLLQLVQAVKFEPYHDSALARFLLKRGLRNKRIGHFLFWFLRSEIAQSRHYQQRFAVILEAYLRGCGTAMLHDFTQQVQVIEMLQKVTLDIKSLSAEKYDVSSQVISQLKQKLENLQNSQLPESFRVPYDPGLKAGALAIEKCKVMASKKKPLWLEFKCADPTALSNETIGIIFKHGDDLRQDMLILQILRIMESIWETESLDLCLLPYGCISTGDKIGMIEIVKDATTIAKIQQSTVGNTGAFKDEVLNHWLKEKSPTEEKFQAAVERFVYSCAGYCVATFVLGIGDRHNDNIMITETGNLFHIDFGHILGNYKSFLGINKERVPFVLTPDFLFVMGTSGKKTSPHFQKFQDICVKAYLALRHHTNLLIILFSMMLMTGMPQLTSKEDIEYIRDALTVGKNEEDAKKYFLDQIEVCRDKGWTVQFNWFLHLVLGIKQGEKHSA
Chain of PI3Kβ (P42338 whole entry, canonical isoform): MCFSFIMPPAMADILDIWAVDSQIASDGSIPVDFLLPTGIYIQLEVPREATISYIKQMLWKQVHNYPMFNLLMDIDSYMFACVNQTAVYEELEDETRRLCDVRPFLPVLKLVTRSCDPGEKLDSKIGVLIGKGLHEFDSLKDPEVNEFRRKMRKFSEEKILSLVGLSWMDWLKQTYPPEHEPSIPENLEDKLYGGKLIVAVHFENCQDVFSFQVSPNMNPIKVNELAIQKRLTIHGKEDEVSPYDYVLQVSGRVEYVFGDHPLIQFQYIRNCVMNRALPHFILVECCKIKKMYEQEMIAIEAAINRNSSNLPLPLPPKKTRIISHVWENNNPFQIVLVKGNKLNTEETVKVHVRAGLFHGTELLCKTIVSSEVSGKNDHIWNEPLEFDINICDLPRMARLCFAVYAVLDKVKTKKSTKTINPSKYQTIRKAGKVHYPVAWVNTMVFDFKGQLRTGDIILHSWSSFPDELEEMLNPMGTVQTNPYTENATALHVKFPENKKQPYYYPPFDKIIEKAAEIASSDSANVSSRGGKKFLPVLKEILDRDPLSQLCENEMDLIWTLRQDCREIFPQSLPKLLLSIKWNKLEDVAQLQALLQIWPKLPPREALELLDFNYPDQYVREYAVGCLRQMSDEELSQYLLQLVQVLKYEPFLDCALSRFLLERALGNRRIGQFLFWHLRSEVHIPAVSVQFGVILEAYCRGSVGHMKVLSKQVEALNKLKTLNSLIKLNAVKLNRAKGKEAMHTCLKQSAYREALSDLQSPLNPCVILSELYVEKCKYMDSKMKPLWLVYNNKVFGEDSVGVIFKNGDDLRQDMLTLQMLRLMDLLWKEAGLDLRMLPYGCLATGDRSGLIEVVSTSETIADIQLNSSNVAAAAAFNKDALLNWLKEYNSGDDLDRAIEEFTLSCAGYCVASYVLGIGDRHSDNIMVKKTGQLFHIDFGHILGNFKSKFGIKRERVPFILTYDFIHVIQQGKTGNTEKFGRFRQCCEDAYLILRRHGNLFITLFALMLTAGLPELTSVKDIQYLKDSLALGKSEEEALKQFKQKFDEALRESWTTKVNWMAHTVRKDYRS
Chain of PI3Kβ (P27986 whole entry partner, canonical isoform): as the sequence (P27986 whole entry partner, canonical isoform) above

With `COC(=O)Nc1cc(C(F)(F)F)c(-c2nc(N3CCOCC3)c3cc(CN4CCN(S(C)(=O)=O)CC4)c(C)n3n2)cn1` [Compound P-17] the AUC(0-inf) [1, 7] was 3240 ng·h/mL, the AUC(0-t) [1, 7] was 2990 ng·h/mL and the clearance [1, 7] was 26.8 mL/min/kg. It also gave a half-life [1, 7] of 2.1 h, an MRT ([1]; male, SD, rat, plasma, iv, Mean, read-out: MRT) of 2.71 h and a Vd [1, 7] of 4.17 L/kg. For the same molecule, the AUC(0-inf) [1, 8] was 4190 ng·h/mL, the AUC(0-t) [1, 8] was 3700 ng·h/mL and the clearance [1, 8] was 19.8 mL/min/kg. It also gave a half-life [1, 8] of 2.61 h, an MRT ([1]; male, SD, rat, plasma, iv, individual animal, read-out: MRT) of 3.53 h and a Vd [1, 8] of 4.21 L/kg. For the same molecule, the “AUC 0 − t” value ([1]; individual animal) was 2564 ng·h/mL and 2711 ng·h/mL, the “AUC 0 − ∞” value ([1]; individual animal) was 2672 ng·h/mL and 2845 ng·h/mL and the Cl ([1]; individual animal) was 31.2 mL/min/kg and 29.3 mL/min/kg. For the same molecule, the MRT ([1]; individual animal) was 2.13 h and 2.46 h, the T1/2 ([1]; individual animal) was 1.88 h and 1.82 h and the Vss ([1]; individual animal) was 3.98 L/kg and 4.33 L/kg. The IC50 [2] was 912 nM, the inhibition at 0.1 µM ([2]; read-out: IH (%) @ 100 nM, β) was 16% and the IC50 [3] was 290 nM. For the same molecule, the inhibition at 0.1 µM ([3]; compound 100 nM, read-out: IH (%) @ 100 nM, γ) was 47%, the IC50 [4] was 75.2 nM and the inhibition at 0.02 µM ([4]; read-out: IH (%) @ 20 nM, δ) was 64.1%. The half-life ([5]; male, SD, rat, plasma, oral, 10 mg/kg, 10 mg/kg, Mean, monomesylate) was 2.77 h, the half-life ([5]; male, SD, rat, plasma, oral, 10 mg/kg, 10 mg/kg, individual animal, monomesylate) was 3.08 h and the AUC(0-inf) ([5]; male, SD, rat, plasma, oral, 10 mg/kg, Mean, monomesylate) was 6120 ng·h/mL. The bioavailability ([5]; male, SD, rat, plasma, oral, 10 mg/kg versus 5 mg/kg intravenous, monomesylate, read-out: F (absolute bioavailability)) was 95.8%, the “steady-state distribution volume Vss, average residence time MRT, half-life T½ and absolute bioavailability F compared with CYH33 (in words)” value ([5]; monomesylates) was “improved” and the IC50 [6] was 76.2 nM. It also gave an inhibition at 0.02 µM ([6]; read-out: IH (%) @ 20 nM, α) of 60.7%.

Source: patent publication US11214572B2, “7-site substituted pyrrole triazine compounds or pharmaceutically acceptable salts thereof, and preparation method thereof and uses thereof” (SHANGHAI INSTITUTE OF MATERIA MEDICA, CHINESE ACADEMY OF …, priority 2017, dated 2022)
